“Also recorded” adds a separate entry of the source. Bridges are numbered along the chain shown (N, C = ends). Where no end group is shown, it is not given here.
Columns and labels:
[1] = test system: biotinylated anti-MPA Fab antibody; test: Bioluminescent bead-based competitive immunoassay with A2-NanoLuc / NanoLuc-A2 tracer; format: binding; conditions: for Cross-reactivity: IC50 for MPA divided by the IC50 of the interferent
Procedure: (§1) To detect MPA with the A2-NanoLuc fusion protein, a bead-based assay was carried out on a black microtiter well plate by immobilizing the biotinylated anti-MPA onto streptavidin-coated magnetic beads (Figure 1). Briefly, the wells were first blocked with assay buffer (SuperBlock with 0.05% Tween-20) for 1 h. Then, 60 μL of 5 μg mL^–1 biotinylated anti-MPA in assay buffer and 20 μL of streptavidin beads (1:50 dilution from the stock) were added to the wells and incubated for 30 min at RT. After washing three times with PBST, 60 μL of a solution containing different concentrations of MPA and 77 μg mL^–1 of the A2-NanoLuc in assay buffer was added to the wells and incubated 30 min at RT. Once the beads were washed, 60 μL of NanoGLO substrate in PBS were added and bioluminescence was measured after a 2 min incubation at 470 nm with a bandwidth of 80 nm using a CLARIOstar microplate reader.
The matrix effect was tested in the presence of different dilutions of the ultrafiltered serum samples [1/2, 1/6, and 1/8, (v/v)], treated following a previously described procedure,[11] in PBST. […] Therefore, such dilution was used for further experiments.

[2] = human, in vivo
Procedure: Volunteers donated whole blood samples with permission from the Ethics Committee from Hospital Clínico Universitario de Valladolid, Spain (no. PI 21-2245). The blood samples were kept at 20 °C during transport and storage. The samples were treated following the procedure described previously (see the Supporting Information for details).[11]
100µL of a 0.1 µg mL−1 bi o -A2 solution were added to the neutravidin-functionalized beads
solution as described before. After a 30-min incubation and a similar washing step, 100 µL of a
solution containing 0.5µg mL −1 of anti-MPA and different concentrations of free MPA,
previously incubated during 10 min, were added to the beads and incubated for another 30 m in.
After washing, an anti-IgG-HRP antibody was added, incubated 30 min and washed thereafter.
Finally, 80 µL of Amplex UltraRed was added and the fluorescence was monitored as described
The optimized separation of the three metabolites was performed in gradient elution mode,
quantified using an internal standard (MPA-LuciferYellow) calibration model using a nine-point
calibration curve, with a concentration range (0.5–80 ng mL −1 for MPA; 50–15000ng mL−1 f or
MPAG and 12– 250ng mL−1 for Acyl-MPAG) for the three metabolites. […]
analyzed. Free MPA was analyzed in plasma samples after a 1:8 dilution in SuperBlock + 0.05% […]

anti-MPA [3] = test: Bead-based competitive immunoassay with synthetic biotinylated peptide A2; format: binding
anti-MPA Fab antibody = test: SPR (Biacore T200), 1:1 Langmuir kinetics, binding to immobilized anti-MPA Fab; conditions: for Dissociation rate constant kd: Biacore T200, CM5 chip, anti-MPA (14) Fab immobilized, anti-OTA Fab reference, 1x PBS-P, +25 °C, dissociation phase 5 min, averages (± SE), seven concentrations; for Binding to anti-MPA Fab surface: SPR, concentration-dependent responses
Text: To compare the binding properties of the biotinylated cyclic peptide and MPA toward the anti-MPA antibody, label-free SPR technology was applied. In the binding experiments, previously identified, produced, and purified Fab antibodies recognizing either MPA or ochratoxin A were immobilized onto sensor chip surfaces.[22] The same experimental conditions were used to study the binding properties of cyclic peptide (A2) and MPA. The results are presented in Figures S3 and S4 and summarized in Table S1 (Supporting Information).
(§2) solution as described before.
(§3) (OTA) Fab fragment on reference surface (flow channel 1). As running buffer, 1× PBS-P
(§4) After dissociation phase of 5 min, regeneration
followed by stabilization period of 60s. All samples were analyzed in replicates. […]

anti-MPA [4] = test: Bead-based competitive phage immunoassay with clone A2; format: binding; conditions: Amplex UltraRed fluorescence, n = 3
Procedure: (§5) Briefly, black microtiter plates were blocked with 280 μL of assay buffer for 1 h at RT and subsequently washed three times with PBS. Then, the biotinylated anti-MPA (1.2 μg mL^–1) and neutravidin-coated magnetic beads (125 μg mL^–1) functionalized as described before,[18] were added to the wells in the assay buffer (total volume 260 μL per well), and incubated for 30 min at RT. After washing the beads using a plate washer with a magnetic support, the phage clone (10^11 pfu mL^–1) and increasing concentrations of free MPA were added to the wells (in assay buffer, 60 μL per well) and incubated for 30 min at RT. The beads were washed again to remove the excess, followed by incubation with HRP-conjugated anti-M13 antibody (1:5000 dilution in assay buffer; 80 μL per well) for 30 min at RT. Finally, after washing, 80 μL of Amplex UltraRed solution was added to each well, and the fluorescence was monitored with a CLARIOstar microplate reader (BMG Labtech) (λex = 530 nm and λem = 590 nm).

[5] = serum; cited from earlier work
Text: Mycophenolic acid (MPA) is a mycotoxin produced by Penicillium fungi, and it is widely used as an immunosuppressant drug to prevent organ rejection in transplanted patients.[1] Recently, it has also been tested as a chemotherapeutic agent as it inhibits the proliferation of cancer cells.[2] Due to the small therapeutic window that MPA has, it is very important to monitor correctly its levels inside the human body.[3] MPA is mainly found in the serum, but only 1% of the total MPA exists in the free form, which is the one responsible for its pharmacological activity.[3],[4] Therefore, the availa ...

[6] = Biosensor analysis of blood samples of patients and healthy controls; format: in vivo, human; conditions: free MPA
Procedure: as §1, §2, §3, §4
followed by stabilization period of 60s. All samples were analyzed in replicates. The result s were
for MPAG, Acyl-MPAG and MPA respectively. The rt were reproducible between runs. Fig ure
The three metabolites were
curves was >0.99 for all compounds tested.
and centrifuged at 12,045 g for 30 min.
samples and vortexed for 5 minutes at 1000 rpm. […]

anti-MPA [7] = test: Plate-based phage ELISA, direct and competitive; format: binding
Procedure: The assay was carried out at room temperature (RT). The biotinylated anti-MPA (Supporting Information) [5 μg mL^–1 in the assay buffer (SuperBlock supplemented with 0.05% Tween-20); 100 μL per well] was immobilized on streptavidin-coated wells (30 min), followed by three-time washes with PBST. The wells were then blocked with 280 μL of assay buffer for 30 min and washed again three times with PBS. Then, the amplified phage stock (between 10^10 and 10^11 pfu mL^–1; 100 μL per well) was added to the wells in assay buffer and incubated for 1 h with slow shaking. After washing the wells as described above, the HRP-conjugated anti-M13 monoclonal antibody (1:5000 dilution in assay buffer; 100 μL per well) was added to the wells and incubated for 1 h. Finally, the plate was washed three times as described above and 100 μL of ABTS was added to the wells. After 5 min, absorbance at 405 nm was measured in a Varioskan plate reader (Thermo Scientific).
as §5

[8] = A2-NanoLuc bead-based bioluminescent assay, n = 3

With COc1c(C)c2c(c(O[C@@H]3O[C@H](C(=O)O)[C@@H](O)[C@H](O)[C@H]3O)c1C/C=C(\C)CCC(=O)O)C(=O)OC2 [MPAG, mycophenolic acid glucuronide] as the compound, how does the Cross-reactivity [1, 8] read?
The Cross-reactivity was 0.03%.

And the “MPAG level in samples vs biosensor” value [2]?
Its value is “below the limit of quantification of the biosensor”.

What does the source list for “A(CEGLYAHWC)GGGSK(Bio)-NH2 (disulfide) [Cyclic peptide (A2)]”?
Competition with free MPA (anti-MPA [3]; synthetic biotinylated peptide, competitive neutravidin bead-based assay): competition at the nanomolar level; Dissociation rate constant kd (anti-MPA Fab antibody): 0.583 ± 0.001 s⁻¹; Binding to anti-MPA Fab surface (anti-MPA Fab antibody): showed binding to the anti-MPA Fab antibody surface; Association / dissociation relative to MPA (anti-MPA Fab antibody; compared to MPA–anti-MPA Fab antibody complex): slower association and faster dissociation

Which “LOD (10% inhibition)” value (anti-MPA [4]; free MPA competing with phage clone A2 (10^11 pfu/mL), neutravidin beads with biotinylated anti-MPA, assay buffer, RT, 30 min) does the source give for COc1c(C)c2c(c(O)c1C/C=C(\C)CCC(=O)O)C(=O)OC2 [MPA, Mycophenolic acid] here?
Its value is 0.69 ng mL^–1.

What about the “Dynamic range (20–80% inhibition)” value (anti-MPA [4]; phage clone A2 (10^11 pfu/mL), neutravidin beads) of the same compound?
The value was 1.0–4.1 ng mL^–1.

And the “Free form of total MPA” value [5]?
The value was 1%.

What about the “Dynamic range (20–80% inhibition)” value ([1]; A2-NanoLuc tracer, assay buffer, bioluminescence, n = 3) of the same compound?
The value was 0.64–14 ng mL^–1.

What about the “Matrix effect on dose response curve” value ([1]; PBST vs ultrafiltered serum diluted 1/8 (v/v), p > 0.05, n = 3) of the same compound?
The value was “No significant differences”.

And the “LOD (10% inhibition)” value ([1]; free MPA competing with A2-NanoLuc (77 μg/mL) for biotinylated anti-MPA on streptavidin beads, assay buffer (SuperBlock + 0.05% Tween-20), RT, 30 min, bioluminescence 470 nm, n = 3)?
Its value is 0.26 ng mL^–1.

And the IC50 ([1]; free MPA competing with A2-NanoLuc (77 μg/mL) for biotinylated anti-MPA on streptavidin beads, assay buffer, RT, 30 min, bioluminescence 470 nm, logistic fit, n = 3)?
The IC50 was 2.9 ± 0.5 ng mL^–1.

What about the “Dynamic range (20–80% inhibition)” value (anti-MPA [3]; biotinylated A2 peptide (0.1 µg/mL) on neutravidin beads, anti-MPA 0.5 µg/mL, Amplex UltraRed fluorescence, n = 3) of the same compound?
The value was 2.4–60 ng mL^–1.

What about the “LOD (10% inhibition)” value (anti-MPA [3]; free MPA, biotinylated A2 peptide (0.1 µg/mL) on neutravidin beads, anti-MPA 0.5 µg/mL pre-incubated 10 min with MPA, 30 min, anti-IgG-HRP, Amplex UltraRed fluorescence, n = 3) of the same compound?
The value was 0.94 ng mL^–1.

And the “Dissociation rate constant kd” value (anti-MPA Fab antibody)?
The value was 0.0741 ± 0.0004 s⁻¹.

And the Kd (anti-MPA Fab antibody; MPA and anti-MPA Fab interaction, in agreement with previous SPR affinity in solution results, read-out: Affinity constant)?
The Kd was about 40 nM.

And the “Binding to anti-MPA Fab surface” value (anti-MPA Fab antibody)?
Its value is “showed binding to the anti-MPA Fab antibody surface”.

And the “MPA detected in control samples” value ([6]; healthy controls H1–H3)?
Its value is “no MPA was detected in the control samples”.

What about the “MPA concentration levels by patient” value ([6]; transplanted patients T1–T5) of the same compound?
The value was “patients T1 and T2 had the highest MPA concentration levels”.

With COc1c(C)c2c(c(O)c1C/C=C(\C)CCC(=O)O[C@@H]1O[C@H](C(=O)O)[C@@H](O)[C@H](O)[C@H]1O)C(=O)OC2 [acyl-MPAG, acyl-mycophenolic acid glucuronide] as the compound, how does the Cross-reactivity [1, 8] read?
The Cross-reactivity was 58%.

What about the “Behavior in the assay compared to MPA” value ([1]; cross-reactivity test, A2-NanoLuc bead-based bioluminescent assay) of the same compound?
Its value is “very similar behavior to MPA”.

For C=CC[C@@H]1/C=C(\C)C[C@H](C)C[C@H](OC)[C@H]2O[C@@](O)(C(=O)C(=O)N3CCCC[C@H]3C(=O)O[C@H](/C(C)=C/[C@@H]3CC[C@@H](O)[C@H](OC)C3)[C@H](C)[C@@H](O)CC1=O)[C@H](C)C[C@@H]2OC [tacrolimus], which Cross-reactivity [1, 8] is on record?
Its Cross-reactivity is “lower than 0.03%”.

Which Cross-reactivity [1, 8] does the source give for cyclosporin here?
The Cross-reactivity was “lower than 0.03%”.

For “ACEGLYAHWC (disulfide 2-10 (inferred)) [A2, phage clone displaying […] with a disulfide bond between the two cysteines; MPA mimetic]”, which “Signal in competitive ELISA in the presence of free MPA” value (anti-MPA [7]; 100 ng/mL free MPA added with phage clone A2, data not shown) is on record?
Its value is “significant decrease in the signal”.

What about the Nonspecific binding (anti-MPA [7]; phage ELISA in the absence of anti-MPA) of the same compound?
Its Nonspecific binding is “very low nonspecific binding”.

And the “Phage ELISA binding to anti-MPA” value (anti-MPA [7]; phage clone vs immobilized biotinylated anti-MPA, signal-to-background, ABTS, absorbance 405 nm)?
The value was “very high signal-to-background ratio; also recorded: high specificity toward anti-MPA”.
